Data taken from ChEMBL document CHEMBL1909046, “DrugMatrix in vitro pharmacology data”.

What was measured:
[1] = molecular target: Cytochrome P450 2C9 (Homo sapiens, UniProt P11712); settings: bti-tn-5b1-4; also: in other assays of this panel Not Active means under 50% inhibition at 10 µM
[2] = molecular target: Melanocortin receptor 5 (Homo sapiens, UniProt P33032); type: cell membranes, HEK293, Membrane; settings: hek293; also: in other assays of this panel Not Active means under 50% inhibition at 10 µM
[3] = molecular target: T1, Cytochrome P450 1A2 (Homo sapiens, UniProt P05177); settings: bti-tn-5b1-4; also: in other assays of this panel Not Active means under 50% inhibition at 10 µM
T1 sequence (P05177 whole entry): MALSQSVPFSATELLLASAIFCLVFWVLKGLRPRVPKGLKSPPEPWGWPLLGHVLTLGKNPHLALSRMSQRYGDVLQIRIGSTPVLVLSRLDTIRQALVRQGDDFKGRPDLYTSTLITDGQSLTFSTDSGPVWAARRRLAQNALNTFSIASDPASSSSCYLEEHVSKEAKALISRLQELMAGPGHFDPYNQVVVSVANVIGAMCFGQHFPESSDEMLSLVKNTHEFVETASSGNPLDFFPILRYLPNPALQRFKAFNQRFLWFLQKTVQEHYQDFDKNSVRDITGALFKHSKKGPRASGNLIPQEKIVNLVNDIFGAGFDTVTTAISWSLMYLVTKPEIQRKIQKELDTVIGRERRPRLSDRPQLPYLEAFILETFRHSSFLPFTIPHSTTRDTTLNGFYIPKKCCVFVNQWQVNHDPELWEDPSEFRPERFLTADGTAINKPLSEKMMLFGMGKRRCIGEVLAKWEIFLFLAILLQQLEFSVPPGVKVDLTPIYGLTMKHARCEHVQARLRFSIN

[4] = molecular target: T2, D(4) dopamine receptor (Homo sapiens, UniProt P21917); assay: DRUGMATRIX: Dopamine D4.2 radioligand binding (ligand: [3H] Spiperone); type: cell membranes, CHO-K1, Membrane; settings: cho-k1; Not Active = under 50% inhibition at 10 µM
T2 sequence (P21917 whole entry): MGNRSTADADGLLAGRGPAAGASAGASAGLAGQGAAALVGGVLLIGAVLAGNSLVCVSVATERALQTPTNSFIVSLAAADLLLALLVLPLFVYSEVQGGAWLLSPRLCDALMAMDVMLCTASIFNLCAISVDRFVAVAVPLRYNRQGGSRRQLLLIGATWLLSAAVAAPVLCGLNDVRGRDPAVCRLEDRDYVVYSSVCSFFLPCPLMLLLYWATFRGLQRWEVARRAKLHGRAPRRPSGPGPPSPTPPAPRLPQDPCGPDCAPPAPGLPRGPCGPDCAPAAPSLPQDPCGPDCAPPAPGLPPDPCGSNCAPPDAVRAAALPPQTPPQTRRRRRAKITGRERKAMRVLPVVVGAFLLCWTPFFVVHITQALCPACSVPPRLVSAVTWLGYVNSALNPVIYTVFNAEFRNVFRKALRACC

[5] = molecular target: C-C chemokine receptor type 2 (Homo sapiens, UniProt P41597); type: cell membranes, CHO-K1, Membrane; settings: cho-k1; also: in other assays of this panel Not Active means under 50% inhibition at 10 µM
[6] = molecular target: Receptor tyrosine-protein kinase erbB-2 (Homo sapiens, UniProt P04626); assay: biochemical; type: cell-based, Insect cells
[7] = molecular target: Cytochrome P450 3A4 (Homo sapiens, UniProt P08684); settings: bti-tn-5b1-4; also: in other assays of this panel Not Active means under 50% inhibition at 10 µM
Cytochrome P450 3A4, sequence (P08684 whole entry): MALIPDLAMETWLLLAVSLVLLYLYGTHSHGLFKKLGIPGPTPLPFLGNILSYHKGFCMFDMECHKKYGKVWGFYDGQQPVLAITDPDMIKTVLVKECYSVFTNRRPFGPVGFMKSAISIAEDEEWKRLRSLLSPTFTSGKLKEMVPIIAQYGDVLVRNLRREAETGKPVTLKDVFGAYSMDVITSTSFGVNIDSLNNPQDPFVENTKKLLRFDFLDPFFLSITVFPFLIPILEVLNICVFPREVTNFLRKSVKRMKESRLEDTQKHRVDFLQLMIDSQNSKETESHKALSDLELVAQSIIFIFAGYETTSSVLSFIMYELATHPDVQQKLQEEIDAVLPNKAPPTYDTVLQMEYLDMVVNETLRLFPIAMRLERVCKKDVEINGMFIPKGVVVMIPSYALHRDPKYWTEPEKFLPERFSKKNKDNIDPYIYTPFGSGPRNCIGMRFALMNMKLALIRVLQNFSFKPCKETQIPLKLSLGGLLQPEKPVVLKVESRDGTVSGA

Melanocortin receptor 5, sequence (P33032 whole entry): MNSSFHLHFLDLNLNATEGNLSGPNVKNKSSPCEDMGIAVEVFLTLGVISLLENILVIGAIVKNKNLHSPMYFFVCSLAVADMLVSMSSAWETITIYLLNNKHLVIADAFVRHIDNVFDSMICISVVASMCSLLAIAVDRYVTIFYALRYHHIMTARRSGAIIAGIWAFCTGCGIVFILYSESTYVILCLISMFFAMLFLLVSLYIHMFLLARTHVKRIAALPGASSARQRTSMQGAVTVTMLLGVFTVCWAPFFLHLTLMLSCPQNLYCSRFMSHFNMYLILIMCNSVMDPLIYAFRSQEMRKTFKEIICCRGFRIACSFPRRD
Cytochrome P450 2C9, sequence (P11712 whole entry): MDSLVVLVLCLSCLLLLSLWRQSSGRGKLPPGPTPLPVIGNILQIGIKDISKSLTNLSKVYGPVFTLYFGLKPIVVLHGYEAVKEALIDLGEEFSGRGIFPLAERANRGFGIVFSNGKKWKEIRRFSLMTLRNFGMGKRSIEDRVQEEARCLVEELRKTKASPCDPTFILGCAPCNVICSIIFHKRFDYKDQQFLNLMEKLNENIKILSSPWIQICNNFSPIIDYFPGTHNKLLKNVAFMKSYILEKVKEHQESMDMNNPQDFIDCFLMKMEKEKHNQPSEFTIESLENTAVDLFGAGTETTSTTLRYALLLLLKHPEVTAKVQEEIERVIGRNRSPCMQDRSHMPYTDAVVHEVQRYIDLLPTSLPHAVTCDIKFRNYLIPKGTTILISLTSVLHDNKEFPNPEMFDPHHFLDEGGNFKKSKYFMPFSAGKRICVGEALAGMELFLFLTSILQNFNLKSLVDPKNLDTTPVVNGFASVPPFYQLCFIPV
Receptor tyrosine-protein kinase erbB-2, sequence (P04626 whole entry): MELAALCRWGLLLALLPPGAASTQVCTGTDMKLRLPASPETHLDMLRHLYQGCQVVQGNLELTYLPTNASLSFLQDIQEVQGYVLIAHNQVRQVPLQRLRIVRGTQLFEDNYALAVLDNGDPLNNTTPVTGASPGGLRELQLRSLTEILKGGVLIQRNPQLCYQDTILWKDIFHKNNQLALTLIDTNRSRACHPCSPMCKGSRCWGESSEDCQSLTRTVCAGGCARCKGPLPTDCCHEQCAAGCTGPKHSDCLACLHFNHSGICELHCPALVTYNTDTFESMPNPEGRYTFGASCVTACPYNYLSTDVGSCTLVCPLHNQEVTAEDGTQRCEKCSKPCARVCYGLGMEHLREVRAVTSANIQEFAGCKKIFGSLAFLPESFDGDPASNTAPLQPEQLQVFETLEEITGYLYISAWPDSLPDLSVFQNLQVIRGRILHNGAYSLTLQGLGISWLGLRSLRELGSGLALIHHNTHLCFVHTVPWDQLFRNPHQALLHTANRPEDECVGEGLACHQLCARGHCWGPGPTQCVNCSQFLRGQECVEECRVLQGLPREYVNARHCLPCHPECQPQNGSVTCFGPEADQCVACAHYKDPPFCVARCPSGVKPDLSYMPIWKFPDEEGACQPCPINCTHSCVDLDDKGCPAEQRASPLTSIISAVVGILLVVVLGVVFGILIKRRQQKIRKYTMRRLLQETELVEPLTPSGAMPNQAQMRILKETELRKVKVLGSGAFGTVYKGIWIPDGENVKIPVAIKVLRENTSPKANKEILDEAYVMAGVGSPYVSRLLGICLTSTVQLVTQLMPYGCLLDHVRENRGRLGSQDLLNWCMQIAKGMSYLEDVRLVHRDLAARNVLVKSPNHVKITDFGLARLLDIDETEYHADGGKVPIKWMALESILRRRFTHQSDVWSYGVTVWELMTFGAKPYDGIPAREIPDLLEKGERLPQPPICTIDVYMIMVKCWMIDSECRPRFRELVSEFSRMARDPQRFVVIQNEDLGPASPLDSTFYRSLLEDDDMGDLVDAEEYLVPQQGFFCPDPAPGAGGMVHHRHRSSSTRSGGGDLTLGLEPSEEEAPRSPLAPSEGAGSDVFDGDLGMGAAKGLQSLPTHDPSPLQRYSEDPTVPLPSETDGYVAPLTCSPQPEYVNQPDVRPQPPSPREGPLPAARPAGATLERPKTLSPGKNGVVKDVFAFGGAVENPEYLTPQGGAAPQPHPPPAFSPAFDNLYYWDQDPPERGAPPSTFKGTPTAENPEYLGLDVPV
C-C chemokine receptor type 2, sequence (P41597 whole entry): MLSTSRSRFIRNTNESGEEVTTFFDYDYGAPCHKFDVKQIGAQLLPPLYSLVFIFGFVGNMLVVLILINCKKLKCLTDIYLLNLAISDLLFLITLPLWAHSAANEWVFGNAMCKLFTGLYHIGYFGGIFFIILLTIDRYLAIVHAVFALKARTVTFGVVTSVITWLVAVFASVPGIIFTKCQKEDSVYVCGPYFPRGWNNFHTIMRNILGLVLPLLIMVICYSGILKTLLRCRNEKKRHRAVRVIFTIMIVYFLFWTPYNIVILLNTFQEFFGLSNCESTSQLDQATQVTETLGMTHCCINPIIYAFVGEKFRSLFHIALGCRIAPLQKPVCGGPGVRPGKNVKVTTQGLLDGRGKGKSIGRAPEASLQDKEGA

Row | SMILES | IC50 [1] | Ki [1] | IC50 [2] | IC50 [3] | Ki [3] | IC50 [4] | IC50 [5] | IC50 ([6]; insect cells) | IC50 [7] | Ki [7] | IC50 ([6]; read-out: IC50) [nM]
1 | CS(=O)(=O)OCCCCOS(C)(=O)=O [BUSULFAN] | Not Active | Not Active | Not Active | Not Active | Not Active | Not Active | Not Active | Not Active | Not Active | Not Active | –
2 | CC(C)(CO)C(O)C(=O)NCCCO (stereo not given) [PANTHENOL] | Not Active | Not Active | Not Active | Not Active | Not Active | Not Active | Not Active | Not Active | Not Active | Not Active | –
3 | O=C(O)c1cc(=O)c2c(OCC(O)COc3cccc4oc(C(=O)O)cc(=O)c34)cccc2o1 [CROMOLYN] | Not Active | Not Active | Not Active | Not Active | Not Active | Not Active | Not Active | Not Active | Not Active | Not Active | –
4 | O=C(/C=C/c1ccc(O)c(O)c1)OCCc1ccccc1 [CAFFEIC ACID PHENETHYL ESTER] | Not Active | Not Active | Not Active | Not Active | Not Active | Not Active | Not Active | – | Not Active | Not Active | 1330
5 | Nc1nc(Cl)nc2c1ncn2[C@H]1C[C@H](O)[C@@H](CO)O1 [CLADRIBINE] | Not Active | Not Active | Not Active | Not Active | Not Active | Not Active | Not Active | Not Active | Not Active | Not Active | –
6 | CC[C@H](C)C(=O)O[C@H]1C[C@H](O)C=C2C=C[C@H](C)[C@H](CC[C@@H](O)C[C@@H](O)CC(=O)O)[C@H]21 [PRAVASTATIN] | Not Active | Not Active | Not Active | Not Active | Not Active | Not Active | Not Active | Not Active | Not Active | Not Active | –
7 | CCOC(=O)n1ccn(C)c1=S [CARBIMAZOLE] | Not Active | Not Active | Not Active | Not Active | Not Active | Not Active | Not Active | Not Active | Not Active | Not Active | –
